Measured values from PubChem BioAssay (NCI).
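Compound exposure: 48 hours, 5 concentrations, 96-well plates. Definition used: TGI = concentration required for complete inhibition of growth.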

Assays:
Experiment in all cases: growth of human tumour cells (NCI), 48 h
[1] = test system: M19-MEL melanoma
[2] = test system: SNB-19 CNS
[3] = test system: HCC-2998 colon
[4] = test system: M14 melanoma
[5] = test system: SN12C renal
[6] = test system: CCRF-CEM leukemia
[7] = test system: SK-OV-3 ovarian
[8] = test system: SF-539 CNS
[9] = test system: A549 NSCLC
[10] = test system: UO-31 renal
[11] = test system: TK-10 renal
[12] = test system: SNB-75 CNS
[13] = test system: NCI-H460 lung
[14] = test system: SW-620 colon
[15] = test system: UACC-62 melanoma
[16] = test system: NCI-H23 lung
[17] = test system: CAKI-1 renal
[18] = test system: MDA-MB-231 breast
[19] = test system: DU-145 prostate
[20] = test system: MCF7 breast

SMILES | TGI [1] [µM] | TGI [2] [µM] | TGI [3] [µM] | TGI [4] [µM] | TGI [5] [µM] | TGI [6] [µM] | TGI [7] [µM] | TGI [8] [µM] | TGI [9] [µM] | TGI [10] [µM] | TGI [11] [µM] | TGI [12] [µM] | TGI [13] [µM] | TGI [14] [µM] | TGI [15] [µM] | TGI [16] [µM] | TGI [17] [µM] | TGI [18] [µM] | TGI [19] [µM] | TGI [20] [µM]
CSc1cnc2ccccc2c1Sc1cn(C)c2ccccc2c1=O | > 100 | 83.3 | > 100 | > 100 | > 100 | > 100 | 44.5 | > 100 | > 100 | > 100 | > 100 | 46.8 | > 100 | > 100 | > 100 | 65.7 | – | – | – | –
Cc1[nH]n(C(=O)Cc2ccccc2)c(=O)c1/C=C1\C(=O)C=Cc2ccccc21 | > 100 | > 100 | > 100 | – | > 100 | 93.4 | – | 75.2 | > 100 | 79.9 | > 100 | > 100 | > 100 | > 100 | – | > 100 | > 100 | – | – | –
CCCCCCCCCCCCCCCCCCCCCCC(=O)N[C@H]1CCc2cc(OC)c(OC)c(OC)c2-c2ccc(SC)c(=O)cc21 | > 100 | > 100 | 65.9 | 90.4 | > 100 | > 100 | 53.6 | 41.3 | > 100 | > 100 | > 100 | 58.2 | 83 | > 100 | > 100 | 62.2 | > 100 | – | – | –
COc1ccc(Cc2c3cc(OC)c(OC)cc3cc[n+]2C)cc1 | > 55.3 | > 31.4 | > 32.8 | > 28.1 | > 28.3 | > 100 | > 47.3 | > 53.1 | > 46.5 | > 51.4 | > 65.1 | 34.6 | – | > 100 | > 50 | > 40.2 | > 61.7 | – | – | –
CCn1c(O)c(C(=O)Nc2cccs2)c(=O)n(CC)c1=S | 39 | 48 | – | 43.8 | 70.8 | > 100 | 77.9 | 33.1 | 49.8 | – | 69.3 | 33.4 | 34.5 | 56.2 | 29.5 | 30.5 | 75.9 | – | – | –
COCc1nc(C#N)c(N)o1 | – | > 10 | > 10 | > 10 | > 10 | > 10 | > 10 | > 10 | > 10 | > 10 | > 10 | > 10 | > 10 | > 10 | > 10 | > 10 | > 10 | > 10 | > 10 | > 10
CC(=O)NNc1nc(C)c(C(=O)NNC(=O)C(=O)Nc2ccc(C)cc2[N+](=O)[O-])s1 | > 100 | > 100 | > 100 | > 100 | > 100 | > 100 | > 100 | > 100 | > 100 | > 100 | > 100 | > 100 | > 100 | > 100 | > 100 | > 100 | > 100 | – | – | –
O=c1[nH]c2ccccc2c(=O)c2cc3ccccc3cc12 | – | 37.3 | > 100 | > 100 | > 100 | > 100 | 30.6 | > 100 | > 100 | > 100 | 37 | 19.4 | 53.6 | > 100 | > 100 | 47.8 | 45.5 | 22 | > 100 | > 100
Cc1nnc(NS(=O)(=O)c2ccc(N=Nc3c(O)c(C(=O)O)cc4ccccc34)cc2)s1 | – | > 100 | > 100 | > 100 | > 100 | > 100 | > 100 | > 100 | > 100 | > 100 | > 100 | > 100 | > 100 | > 100 | > 100 | > 100 | > 100 | > 100 | > 100 | > 100
COc1ccc(Cc2nc3cc(C(F)(F)F)ccc3n2C[C@@H]2CCCN3CCCCC23)cc1 (stereo not given in full) | – | 27.4 | 5.94 | 7.14 | 22.3 | > 44.5 | 28.4 | 28.1 | 24.7 | 0.166 | 24.2 | 77.4 | 31.1 | > 62.1 | 11.5 | 30.9 | 25.6 | 25.2 | 26.6 | 26.2
COc1cccc(O)c1-c1cc(=O)c2c(O)c(OC)c(OC)c(OC)c2o1 | – | > 100 | 25.4 | 68.4 | 93.4 | > 100 | 89.3 | > 100 | > 100 | > 100 | > 100 | 76.1 | 52.1 | > 100 | 32.8 | 85.5 | > 100 | > 100 | 58.9 | 77.7
NCCCc1nonc1C(=O)O | – | > 100 | > 100 | > 100 | > 100 | > 100 | > 100 | > 100 | > 100 | > 100 | > 100 | > 100 | > 100 | > 100 | > 100 | > 100 | > 100 | > 100 | > 100 | > 100
COC(=O)N1C=Cc2c(c(C)c3c([nH]c4ccccc43)c2C)C1C (stereo not given) | 37.6 | 35.6 | 32.1 | 71.1 | – | 54.4 | 57.3 | 35.3 | 42.2 | 34.2 | 35.9 | 47.8 | 70.3 | 38.9 | 34.9 | 36.2 | 34.5 | – | – | –
